Test results reported in ChEMBL document CHEMBL5257112, “Discovery of 4-oxo-4,5-dihydropyrazolo[1,5-a]quinoxaline-7-carboxamide derivatives as PI3Kα inhibitors via virtual screening and docking-based structure optimization” (Bioorg Med Chem, 2023).

Key:
[1] = biological target: Phosphatidylinositol 4,5-bisphosphate 3-kinase catalytic subunit alpha isoform (Homo sapiens, UniProt P42336); assay: Inhibition of PI3Kalpha (unknown origin) using PIP2:PS as substrate preincubated for 1 hr followed by ATP and substate addition and measured after 1 hr by ADP-glo reagent based assay
Phosphatidylinositol 4,5-bisphosphate 3-kinase catalytic subunit alpha isoform, sequence (P42336 whole entry, canonical isoform): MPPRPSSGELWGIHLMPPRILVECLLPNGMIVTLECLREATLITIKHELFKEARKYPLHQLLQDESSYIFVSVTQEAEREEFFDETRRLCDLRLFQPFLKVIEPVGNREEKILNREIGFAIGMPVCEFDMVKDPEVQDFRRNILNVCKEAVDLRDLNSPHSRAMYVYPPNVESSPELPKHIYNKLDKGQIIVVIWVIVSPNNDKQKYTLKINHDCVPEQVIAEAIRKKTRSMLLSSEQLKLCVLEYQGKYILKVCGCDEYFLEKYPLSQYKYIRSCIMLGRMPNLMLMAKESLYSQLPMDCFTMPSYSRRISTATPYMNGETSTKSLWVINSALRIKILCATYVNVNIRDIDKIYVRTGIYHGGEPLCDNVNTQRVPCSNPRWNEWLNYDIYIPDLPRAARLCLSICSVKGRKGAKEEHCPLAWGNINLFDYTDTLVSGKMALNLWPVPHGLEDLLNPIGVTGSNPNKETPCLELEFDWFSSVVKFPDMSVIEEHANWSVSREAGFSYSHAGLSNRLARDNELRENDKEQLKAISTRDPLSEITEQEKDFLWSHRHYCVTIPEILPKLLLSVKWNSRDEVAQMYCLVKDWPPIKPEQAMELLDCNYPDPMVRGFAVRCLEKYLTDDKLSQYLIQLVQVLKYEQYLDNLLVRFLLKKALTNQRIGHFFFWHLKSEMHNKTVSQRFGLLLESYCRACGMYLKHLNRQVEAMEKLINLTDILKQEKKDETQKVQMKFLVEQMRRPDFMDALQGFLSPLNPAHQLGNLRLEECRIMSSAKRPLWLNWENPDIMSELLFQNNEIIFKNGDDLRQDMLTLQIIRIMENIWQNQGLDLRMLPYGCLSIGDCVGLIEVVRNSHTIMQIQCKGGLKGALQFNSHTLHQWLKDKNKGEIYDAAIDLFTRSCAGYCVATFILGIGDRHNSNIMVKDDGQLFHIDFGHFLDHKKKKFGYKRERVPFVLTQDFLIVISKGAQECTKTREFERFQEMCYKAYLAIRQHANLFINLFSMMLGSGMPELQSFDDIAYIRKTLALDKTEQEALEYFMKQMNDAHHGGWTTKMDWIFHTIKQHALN

T47D = assay: Antiproliferative activity against human T47D cells expressing PIK3CA mutant assessed as cell growth inhibition incubated for 72 hrs by MTT assay; type: functional, cell-based
Kasumi 1 = assay: Antiproliferative activity against human Kasumi 1 cells assessed as cell growth inhibition incubated for 72 hrs by MTT assay; type: functional, cell-based; settings: Kasumi 1, 72 h
[2] = biological target: Phosphatidylinositol 4,5-bisphosphate 3-kinase catalytic subunit beta isoform (Homo sapiens, UniProt P42338); assay: Inhibition of PI3Kbeta (unknown origin) using PIP2:PS as substrate preincubated for 1 hr followed by ATP and substate addition and measured after 1 hr by ADP-glo reagent based assay
Phosphatidylinositol 4,5-bisphosphate 3-kinase catalytic subunit beta isoform, sequence (P42338 whole entry, canonical isoform): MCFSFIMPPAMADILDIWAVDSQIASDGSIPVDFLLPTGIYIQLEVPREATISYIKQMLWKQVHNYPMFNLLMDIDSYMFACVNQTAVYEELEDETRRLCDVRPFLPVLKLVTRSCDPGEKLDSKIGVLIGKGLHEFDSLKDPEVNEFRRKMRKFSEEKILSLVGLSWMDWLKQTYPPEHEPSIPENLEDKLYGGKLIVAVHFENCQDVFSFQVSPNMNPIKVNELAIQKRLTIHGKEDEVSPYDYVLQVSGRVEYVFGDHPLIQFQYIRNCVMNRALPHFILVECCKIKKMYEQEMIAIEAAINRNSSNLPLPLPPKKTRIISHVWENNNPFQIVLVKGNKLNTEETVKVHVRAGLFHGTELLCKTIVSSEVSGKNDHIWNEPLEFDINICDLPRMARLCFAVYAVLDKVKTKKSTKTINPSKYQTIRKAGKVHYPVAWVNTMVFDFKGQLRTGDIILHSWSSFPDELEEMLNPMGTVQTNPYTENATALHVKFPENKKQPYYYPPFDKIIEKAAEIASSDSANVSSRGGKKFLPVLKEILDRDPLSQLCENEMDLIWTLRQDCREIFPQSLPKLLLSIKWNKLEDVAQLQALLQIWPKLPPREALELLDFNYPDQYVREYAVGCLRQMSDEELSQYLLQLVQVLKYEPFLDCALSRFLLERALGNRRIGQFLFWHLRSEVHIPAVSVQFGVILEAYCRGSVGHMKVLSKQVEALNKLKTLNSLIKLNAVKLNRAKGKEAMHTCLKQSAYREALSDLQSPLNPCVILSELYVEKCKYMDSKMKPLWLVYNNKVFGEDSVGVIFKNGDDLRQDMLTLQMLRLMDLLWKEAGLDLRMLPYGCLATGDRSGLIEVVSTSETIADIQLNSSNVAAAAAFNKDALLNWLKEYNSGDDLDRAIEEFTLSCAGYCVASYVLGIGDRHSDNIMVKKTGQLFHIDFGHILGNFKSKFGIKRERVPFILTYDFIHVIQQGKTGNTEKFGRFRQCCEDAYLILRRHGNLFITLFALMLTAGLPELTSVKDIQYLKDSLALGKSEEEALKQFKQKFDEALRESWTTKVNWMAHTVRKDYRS

[3] = biological target: T1, Phosphatidylinositol 4,5-bisphosphate 3-kinase catalytic subunit delta isoform (Homo sapiens, UniProt O00329); assay: Inhibition of PI3Kdelta (unknown origin) using PIP2:PS as substrate preincubated for 1 hr followed by ATP and substate addition and measured after 1 hr by ADP-glo reagent based assay
T1 sequence (O00329 whole entry): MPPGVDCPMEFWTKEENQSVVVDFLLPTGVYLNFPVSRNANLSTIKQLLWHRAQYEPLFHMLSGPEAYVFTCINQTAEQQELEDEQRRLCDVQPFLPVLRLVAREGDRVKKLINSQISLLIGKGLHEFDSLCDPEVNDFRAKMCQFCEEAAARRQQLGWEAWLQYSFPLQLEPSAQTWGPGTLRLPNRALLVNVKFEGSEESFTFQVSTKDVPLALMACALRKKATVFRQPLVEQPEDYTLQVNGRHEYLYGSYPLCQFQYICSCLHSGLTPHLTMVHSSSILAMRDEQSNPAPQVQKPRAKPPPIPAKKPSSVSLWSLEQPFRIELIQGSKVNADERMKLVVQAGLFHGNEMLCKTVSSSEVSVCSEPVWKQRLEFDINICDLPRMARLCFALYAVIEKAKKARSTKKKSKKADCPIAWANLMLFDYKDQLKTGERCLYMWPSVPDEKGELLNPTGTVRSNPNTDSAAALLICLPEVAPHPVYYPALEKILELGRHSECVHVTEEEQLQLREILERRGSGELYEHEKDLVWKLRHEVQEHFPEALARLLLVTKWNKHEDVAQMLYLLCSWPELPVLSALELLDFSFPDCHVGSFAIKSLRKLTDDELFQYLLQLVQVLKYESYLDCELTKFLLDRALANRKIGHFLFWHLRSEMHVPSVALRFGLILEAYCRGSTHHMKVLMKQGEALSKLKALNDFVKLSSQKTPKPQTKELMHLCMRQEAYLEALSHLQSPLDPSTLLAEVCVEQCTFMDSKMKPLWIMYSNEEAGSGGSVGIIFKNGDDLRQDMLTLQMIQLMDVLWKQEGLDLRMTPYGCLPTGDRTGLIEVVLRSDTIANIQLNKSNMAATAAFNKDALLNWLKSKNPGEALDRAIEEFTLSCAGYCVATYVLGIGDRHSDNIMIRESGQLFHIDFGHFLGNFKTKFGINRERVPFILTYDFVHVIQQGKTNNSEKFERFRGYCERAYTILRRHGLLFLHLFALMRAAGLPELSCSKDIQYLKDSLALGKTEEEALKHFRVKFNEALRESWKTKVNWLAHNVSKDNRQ

[4] = biological target: Phosphatidylinositol 4,5-bisphosphate 3-kinase catalytic subunit gamma isoform (Homo sapiens, UniProt P48736); assay: Inhibition of PI3Kgamma (unknown origin) using PIP2:PS as substrate preincubated for 1 hr followed by ATP and substate addition and measured after 1 hr by ADP-glo reagent based assay
Phosphatidylinositol 4,5-bisphosphate 3-kinase catalytic subunit gamma isoform, sequence (P48736 whole entry, canonical isoform): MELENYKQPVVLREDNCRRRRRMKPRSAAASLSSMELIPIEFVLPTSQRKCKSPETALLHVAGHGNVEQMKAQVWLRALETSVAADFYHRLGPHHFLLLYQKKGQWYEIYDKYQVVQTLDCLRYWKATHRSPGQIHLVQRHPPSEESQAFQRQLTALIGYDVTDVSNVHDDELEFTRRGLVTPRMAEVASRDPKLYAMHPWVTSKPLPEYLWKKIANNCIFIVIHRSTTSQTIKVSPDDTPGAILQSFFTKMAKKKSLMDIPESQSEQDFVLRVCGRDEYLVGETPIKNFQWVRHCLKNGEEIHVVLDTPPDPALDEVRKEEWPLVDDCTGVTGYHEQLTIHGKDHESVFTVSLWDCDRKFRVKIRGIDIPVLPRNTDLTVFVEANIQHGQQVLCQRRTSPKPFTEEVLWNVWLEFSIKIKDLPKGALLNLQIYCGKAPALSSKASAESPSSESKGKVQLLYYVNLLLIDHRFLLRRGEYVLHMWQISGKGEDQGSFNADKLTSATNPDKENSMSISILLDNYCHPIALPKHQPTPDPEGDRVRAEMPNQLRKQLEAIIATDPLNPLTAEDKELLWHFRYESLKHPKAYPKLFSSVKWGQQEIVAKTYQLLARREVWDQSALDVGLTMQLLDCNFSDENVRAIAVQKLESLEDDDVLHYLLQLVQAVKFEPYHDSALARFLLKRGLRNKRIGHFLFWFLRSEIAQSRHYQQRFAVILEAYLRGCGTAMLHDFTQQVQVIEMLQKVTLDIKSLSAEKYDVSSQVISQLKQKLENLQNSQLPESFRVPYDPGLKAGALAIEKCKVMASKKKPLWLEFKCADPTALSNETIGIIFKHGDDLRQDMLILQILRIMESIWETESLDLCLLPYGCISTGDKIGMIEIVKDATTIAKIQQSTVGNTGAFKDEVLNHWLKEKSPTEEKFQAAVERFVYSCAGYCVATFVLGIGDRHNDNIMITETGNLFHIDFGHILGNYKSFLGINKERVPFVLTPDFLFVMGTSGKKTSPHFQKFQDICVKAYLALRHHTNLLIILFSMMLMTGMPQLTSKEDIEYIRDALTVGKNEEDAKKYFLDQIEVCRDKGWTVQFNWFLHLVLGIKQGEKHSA

[5] = Inhibition of PI3K/AKT/mTOR signaling pathway in human T47D cells assessed as reduction in Akt phosphorylation at S473 residue preincubated for 1 hr followed by recombinant human insulin-like growth factor 1 stimulation by Western blot analysis; type: cell-based; settings: dose 0.01-10 µM
[6] = Cmax in mouse at 1 mg/kg, iv measured after 24 hrs by LC/MS/MS analysis; type: ADME, organism-based; design: time 24 hrs, dose 1 mg/kg, route iv; settings: in vivo
[7] = Half life in mouse at 5 mg/kg, po measured after 24 hrs by LC/MS/MS analysis; type: ADME, organism-based; settings: in vivo
[8] = Volume of distribution in mouse at 1 mg/kg, iv measured after 24 hrs by LC/MS/MS analysis; type: ADME, organism-based; settings: in vivo
[9] = AUC(0 to t) in mouse at 1 mg/kg, iv measured after 24 hrs by LC/MS/MS analysis; type: ADME, organism-based; design: dose 1 mg/kg, time 24 hrs, route iv; settings: in vivo
[10] = Half life in mouse at 1 mg/kg, iv measured after 24 hrs by LC/MS/MS analysis; type: ADME, organism-based; settings: in vivo
[11] = Oral bioavailability in mouse at 5 mg/kg measured after 24 hrs by LC/MS/MS analysis; type: ADME, organism-based; settings: in vivo
[12] = AUC(0 to t) in mouse at 5 mg/kg, po measured after 24 hrs by LC/MS/MS analysis; type: ADME, organism-based; design: dose 5 mg/kg, time 24 hrs, route po; settings: in vivo
[13] = Volume of distribution in mouse at 5 mg/kg, po measured after 24 hrs by LC/MS/MS analysis; type: ADME, organism-based; settings: in vivo
[14] = Clearance in mouse at 1 mg/kg, iv measured after 24 hrs by LC/MS/MS analysis; type: ADME, organism-based; settings: in vivo
[15] = Cmax in mouse at 5 mg/kg, po measured after 24 hrs by LC/MS/MS analysis; type: ADME, organism-based; design: time 24 hrs, dose 5 mg/kg, route po; settings: in vivo
[16] = Clearance in mouse at 5 mg/kg, po measured after 24 hrs by LC/MS/MS analysis; type: ADME, organism-based; settings: in vivo

Row | SMILES | IC50 [1] [µM] | further results
1 | CCn1c(=O)c2cnc(C)n2c2ccc(C(=O)NCc3cccnc3)cc21 | 3.63 | 
2 | CCn1c(=O)c2cc(C(C)C)nn2c2ccc(C(=O)NCc3cccnc3)cc21 | > 20 | 
3 | CCNC(=O)c1ccc2c(c1)n(CC)c(=O)c1ccnn12 | 9.3 | 
4 | O=C(NCc1cccnc1)c1ccc2c(c1)n(Cc1ccc(C(F)(F)F)cc1)c(=O)c1ccnn12 | > 20 | 
5 | CC(C)(C)c1ccc(Cn2c(=O)c3ccnn3c3ccc(C(=O)NCc4cccnc4)cc32)cc1 | > 20 | 
6 | CCn1c(=O)c2cccn2c2ccc(C(=O)NCc3cccnc3)cc21 | > 20 | 
7 | CCNC(=O)c1ccc2c(c1)n(Cc1ccccc1)c(=O)c1ccnn12 | 3.61 | 
8 | CCN1C(=O)[C@H]2CCCN2c2ccc(C(=O)NCc3cccnc3)cc21 | > 20 | 
9 | O=C(c1ccc2c(c1)[nH]c(=O)c1ccnn12)N1CCN(C2CCCC2)CC1 | > 20 | 
10 | CCN1C(=O)[C@@H]2CCCN2c2ccc(C(=O)NCc3cccnc3)cc21 | > 20 | 
11 | CN1CCC(N2CCN(C(=O)c3ccc4c(c3)[nH]c(=O)c3ccnn34)CC2)CC1 | > 20 | 
12 | O=C(NCCN1CCOCC1)c1ccc2c(c1)n(Cc1ccccc1)c(=O)c1ccnn12 | 10.3 | 
13 | CCn1c(=O)c2ccnn2c2ccc(C(=O)NCc3ccc(C)nc3)cc21 | 3.62 | 
14 | CCNC(=O)c1ccc2c(c1)n(CCCN(C)C)c(=O)c1ccnn12 | 4.26 | 
15 | CCn1c(=O)c2ccnn2c2ccc(C(=O)NCc3cnccc3C)cc21 | 3.52 | 
16 | CCn1c(=O)c2ccnn2c2ccc(C(=O)NCCc3cccnc3)cc21 | 13.9 | 
17 | CCn1c(=O)c2ccnn2c2ccc(C(=O)NCc3cncnc3)cc21 | 1.59 | 
18 | CCn1c(=O)c2ccnn2c2ccc(C(=O)N3CCN(c4ccccc4)CC3)cc21 | > 20 | 
19 | Cc1nc(NC(=O)N2CCC[C@H]2C(N)=O)sc1-c1ccnc(C(C)(C)C(F)(F)F)c1 [ALPELISIB] |  | IC50 (T47D): 0.1 µM; IC50 (Kasumi 1): 0.44 µM
20 | CCn1c(=O)c2ccnn2c2cc(NC)c(C(=O)NCc3cccnc3)cc21 | > 20 | IC50 [2]: 4.89 µM; IC50 [3]: > 20 µM; IC50 [4]: > 20 µM
21 | CCn1c(=O)c2ccnn2c2cc(N)c(C(=O)NCc3cncnc3)cc21 | 0.24 | IC50 [2]: > 10 µM; inhibition [5]: Dose-Dependent Effect; Cmax [6]: 567 ng/mL; half-life [7]: 4.97 h; Vd [8]: 3.13 L/kg; AUC(0-t) at 24 h [9]: 717 ng·h/mL; IC50 [3]: 4.1 µM; half-life [10]: 2.52 h; IC50 (T47D): 1.82 µM; bioavailability [11]: 91.8%; AUC(0-t) at 24 h [12]: 3290 ng·h/mL; Vd [13]: 6.36 L/kg; clearance [14]: 20.5 mL/min/kg; IC50 (Kasumi 1): 1.64 µM; Cmax [15]: 863 ng/mL; IC50 [4]: 0.83 µM; CL/F [16]: 15.7 mL/min/kg
22 | CCn1c(=O)c2ccnn2c2ccc(C(=O)N3CCN(C)CC3)cc21 | > 20 | 
23 | CCn1c(=O)c2ccnn2c2ccc(C(=O)NCc3cncc(C)c3)cc21 | 2.65 | 
24 | CCn1c(=O)c2ccnn2c2ccc(C(=O)NCc3ccncc3)cc21 | 2.86 | 
25 | CCn1c(=O)c2ccnn2c2ccc(C(=O)NCc3cccnc3C)cc21 | 4.51 | 

Row | SMILES | IC50 [1] [µM] | further results
26 | CCn1c(=O)c2ccnn2c2cc(NC(C)=O)c(C(=O)NCc3cncnc3)cc21 | > 20 | IC50 [2]: > 20 µM; IC50 [3]: > 20 µM; IC50 [4]: > 20 µM
27 | CCN1C(=O)N2CCN=C2c2ccc(C(=O)NCc3cccnc3)cc21 | > 20 | 
28 | CCn1c(=O)c2ccnn2c2ccc(C(=O)NCc3cccnc3)cc21 | 3.52 | 
29 | CCNC(=O)c1ccc2c(c1)n(CCOC)c(=O)c1ccnn12 | 6.43 | 
30 | CCN1C(=O)N2CCCN=C2c2ccc(C(=O)NCc3cccnc3)cc21 | > 20 | 
31 | CCn1c(=O)c2ccnn2c2ccc(C(=O)NCCN3CCOCC3)cc21 | 10.9 | 
32 | CCn1c(=O)c2ccnn2c2ccc(C(=O)NCc3cnccn3)cc21 | 4.76 | 
33 | CNC(=O)c1ccc2c(c1)n(CCCN(C)C1CCCCC1)c(=O)c1ccnn12 | 11 | 
34 | O=C(NCc1cccnc1)c1ccc2c(c1)n(CC1CC1)c(=O)c1ccnn12 | 2.65 | 
35 | O=C(NCc1cccnc1)c1ccc2c(c1)n(Cc1ccc(OC(F)(F)F)cc1)c(=O)c1ccnn12 | > 20 | 
36 | CCCCn1c(=O)c2ccnn2c2ccc(C(=O)NCc3cccnc3)cc21 | 2 | 
37 | CCN1C(=O)C2CCCCN2c2ccc(C(=O)NCc3cccnc3)cc21 (centres undefined) | > 20 | 
38 | CCn1c(=O)c2ccnn2c2ccc(C(=O)NCc3ccccn3)cc21 | 2.86 | 
39 | CCn1c(=O)c2cc(C)nn2c2ccc(C(=O)NCc3cccnc3)cc21 | 11.4 | 
40 | CCN1C(=O)N2CC(C)(C)CN=C2c2ccc(C(=O)NCc3cccnc3)cc21 | > 20 | 
41 | Cn1c(=O)c2ccnn2c2ccc(C(=O)NCCN3CCOCC3)cc21 | 12.3 | 
42 | CS(=O)(=O)c1ccc(Cn2c(=O)c3ccnn3c3ccc(C(=O)NCc4cccnc4)cc32)cc1 | > 20 | 
43 | CCNC(=O)c1ccc2c(c1)n(CCN1CCCCC1)c(=O)c1ccnn12 | 5.25 | 
44 | O=C(NCCN1CCOCC1)c1ccc2c(c1)n(Cc1ccc(F)cc1)c(=O)c1ccnn12 | 9.62 | 
45 | CCn1c(=O)c2ccnn2c2cc(N(C)C)c(C(=O)NCc3cccnc3)cc21 | > 20 | IC50 [2]: 15 µM; IC50 [3]: > 20 µM; IC50 [4]: > 20 µM
46 | CCn1c(=O)c2ccnn2c2cc(N)c(C(=O)NCc3cccnc3)cc21 | 0.87 | IC50 [2]: 0.72 µM; Cmax [6]: < 50 ng/mL; AUC(0-t) at 24 h [9]: < 100 ng·h/mL; IC50 [3]: 5.74 µM; AUC(0-t) at 24 h [12]: < 100 ng·h/mL; IC50 (Kasumi 1): 4.38 µM; Cmax [15]: < 50 ng/mL; IC50 [4]: 1.4 µM
47 | CCn1c(=O)c2ccnn2c2ccc(C(=O)NCCCN3CCOCC3)cc21 | 4.18 | 
48 | CCn1c(=O)c2nccn2c2ccc(C(=O)NCc3cccnc3)cc21 | > 20 | 
49 | CCn1c(=O)c2ccnn2c2ccc(C(=O)NCc3cnn(C)c3)cc21 | 5.47 | 
